{"source": "patent US11691980B2", "about": "“Liphagal analog and multi-targeted kinase inhibitor containing liphagal or analog thereof” (TOHOKU UNIVERSITY, priority 2017, dated 2023)", "assay_type_in_all_cases": "biochemical", "key": {"MARK2": {"biological_target": "T1, MARK2 (Homo sapiens, UniProt Q7KZI7)", "T1 construct": "purchased Carna Biosciences", "experiment": "mobility shift assay"}, "CK2α1/β": {"biological_target": "T2, CK2α1/β (Homo sapiens, UniProt P68400)", "T2 construct": "purchased Carna Biosciences", "experiment": "mobility shift assay"}, "PIM2": {"biological_target": "PIM2 (Homo sapiens, UniProt Q9P1W9)", "sequence (Q9P1W9 whole entry)": "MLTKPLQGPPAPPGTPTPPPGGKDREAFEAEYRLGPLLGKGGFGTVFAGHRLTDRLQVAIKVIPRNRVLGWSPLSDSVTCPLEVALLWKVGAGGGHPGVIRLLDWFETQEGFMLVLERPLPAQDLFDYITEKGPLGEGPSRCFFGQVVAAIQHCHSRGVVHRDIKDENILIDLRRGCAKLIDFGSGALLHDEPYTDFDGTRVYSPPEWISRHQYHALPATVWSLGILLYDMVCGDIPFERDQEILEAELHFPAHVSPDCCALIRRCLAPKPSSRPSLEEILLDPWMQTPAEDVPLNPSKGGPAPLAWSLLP", "experiment": "IC50 by mobility shift assay", "settings": "Table 2, mobility shift assay; read-out: IC50 (μM), Kinase PIM2", "description": "(§1) The compounds produced in Production Examples described above were each assessed for its inhibitory activity against CDK7, PIM2, and PI3K by mobility shift assay. In addition, a combination showing the highest inhibitory activity against each kinase is indicated by italics."}, "CDK7/CycHMAT1": {"biological_target": "CDK7/CycHMAT1 (Homo sapiens, UniProt P50613)", "sequence (P50613 whole entry)": "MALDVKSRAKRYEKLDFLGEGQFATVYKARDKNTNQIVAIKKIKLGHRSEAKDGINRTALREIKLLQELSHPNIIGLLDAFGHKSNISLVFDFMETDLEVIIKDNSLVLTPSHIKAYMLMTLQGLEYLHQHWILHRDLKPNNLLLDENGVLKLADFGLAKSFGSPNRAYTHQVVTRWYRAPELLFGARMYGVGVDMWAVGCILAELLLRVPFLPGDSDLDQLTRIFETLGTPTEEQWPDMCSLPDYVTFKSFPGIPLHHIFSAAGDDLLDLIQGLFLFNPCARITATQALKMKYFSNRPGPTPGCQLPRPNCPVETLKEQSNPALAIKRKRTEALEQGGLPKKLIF", "sequence (P51946 whole entry partner)": "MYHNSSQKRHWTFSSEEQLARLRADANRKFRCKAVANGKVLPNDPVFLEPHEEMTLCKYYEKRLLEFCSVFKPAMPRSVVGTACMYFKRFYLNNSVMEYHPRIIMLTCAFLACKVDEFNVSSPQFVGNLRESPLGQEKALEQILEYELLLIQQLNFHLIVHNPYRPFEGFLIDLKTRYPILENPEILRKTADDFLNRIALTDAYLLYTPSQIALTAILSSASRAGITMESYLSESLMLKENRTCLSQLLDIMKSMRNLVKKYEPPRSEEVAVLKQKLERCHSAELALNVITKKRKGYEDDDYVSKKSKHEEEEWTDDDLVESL", "sequence (P51948 whole entry partner)": "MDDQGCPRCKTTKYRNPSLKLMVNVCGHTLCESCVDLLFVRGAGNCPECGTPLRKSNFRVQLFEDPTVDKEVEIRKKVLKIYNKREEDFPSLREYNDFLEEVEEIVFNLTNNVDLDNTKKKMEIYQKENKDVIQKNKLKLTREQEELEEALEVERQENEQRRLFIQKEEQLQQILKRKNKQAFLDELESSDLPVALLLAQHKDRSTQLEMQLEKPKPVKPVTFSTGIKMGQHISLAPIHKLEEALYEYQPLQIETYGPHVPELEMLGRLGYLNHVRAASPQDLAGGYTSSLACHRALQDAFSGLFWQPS", "experiment": "IC50 by mobility shift assay", "settings": "Table 2, mobility shift assay; read-out: IC50 (μM), Kinase CDK7/CycH/MAT1", "description": "as §1"}, "MLK3_Cascade": {"biological_target": "T3, MLK3_Cascade (Homo sapiens, UniProt Q16584)", "T3 construct": "purchased Carna Biosciences", "experiment": "mobility shift assay"}, "QIK": {"biological_target": "T4, QIK (Homo sapiens, UniProt Q9H0K1)", "T4 construct": "purchased Carna Biosciences", "experiment": "mobility shift assay"}, "YES": {"biological_target": "T5, YES (Homo sapiens, UniProt P07947)", "T5 construct": "purchased Carna Biosciences", "experiment": "mobility shift assay"}, "CRIK": {"biological_target": "T6, CRIK (Homo sapiens, UniProt O14578)", "T6 construct": "purchased Carna Biosciences", "experiment": "mobility shift assay"}, "MAP3K2_Cascade": {"biological_target": "T7, MAP3K2_Cascade (Homo sapiens, UniProt Q9Y2U5)", "T7 construct": "purchased Carna Biosciences", "experiment": "mobility shift assay"}, "MAPXK2 Cascade": {"system": "MAPXK2 Cascade", "experiment": "mobility shift assay", "settings": "10 μM"}, "JAK1": {"biological_target": "T8, JAK1 (Homo sapiens, UniProt P23458)", "T8 construct": "purchased Carna Biosciences", "experiment": "mobility shift assay"}, "DYRK1B": {"biological_target": "T9, DYRK1B (Homo sapiens, UniProt Q9Y463)", "T9 construct": "purchased Carna Biosciences", "experiment": "mobility shift assay"}, "SRC": {"biological_target": "T10, SRC (Homo sapiens, UniProt P12931)", "T10 construct": "purchased Carna Biosciences", "experiment": "mobility shift assay"}, "HER2": {"biological_target": "T11, HER2 (Homo sapiens, UniProt P04626)", "T11 construct": "purchased Carna Biosciences", "experiment": "mobility shift assay"}, "EGFR(T790M)": {"biological_target": "T12, EGFR(T790M) (Homo sapiens, UniProt P00533, T790M)", "T12 construct": "purchased Carna Biosciences", "experiment": "mobility shift assay"}, "ALK(C1156Y)": {"biological_target": "T13, ALK(C1156Y) (Homo sapiens, UniProt Q9UM73, C1156Y)", "T13 construct": "purchased Carna Biosciences", "experiment": "mobility shift assay"}, "TSSK3": {"biological_target": "T14, TSSK3 (Homo sapiens, UniProt Q96PN8)", "T14 construct": "purchased Carna Biosciences", "experiment": "mobility shift assay"}, "SRPK1": {"biological_target": "T15, SRPK1 (Homo sapiens, UniProt Q96SB4)", "T15 construct": "purchased Carna Biosciences", "experiment": "IMAP Assay"}, "WNK2": {"biological_target": "T16, WNK2 (Homo sapiens, UniProt Q9Y3S1)", "T16 construct": "purchased Carna Biosciences", "experiment": "mobility shift assay"}, "FGFR1(V561M)": {"biological_target": "T17, FGFR1(V561M) (Homo sapiens, UniProt P11362, V561M)", "T17 construct": "purchased Carna Biosciences", "T17 sequence (P11362 22-822 V561M)": "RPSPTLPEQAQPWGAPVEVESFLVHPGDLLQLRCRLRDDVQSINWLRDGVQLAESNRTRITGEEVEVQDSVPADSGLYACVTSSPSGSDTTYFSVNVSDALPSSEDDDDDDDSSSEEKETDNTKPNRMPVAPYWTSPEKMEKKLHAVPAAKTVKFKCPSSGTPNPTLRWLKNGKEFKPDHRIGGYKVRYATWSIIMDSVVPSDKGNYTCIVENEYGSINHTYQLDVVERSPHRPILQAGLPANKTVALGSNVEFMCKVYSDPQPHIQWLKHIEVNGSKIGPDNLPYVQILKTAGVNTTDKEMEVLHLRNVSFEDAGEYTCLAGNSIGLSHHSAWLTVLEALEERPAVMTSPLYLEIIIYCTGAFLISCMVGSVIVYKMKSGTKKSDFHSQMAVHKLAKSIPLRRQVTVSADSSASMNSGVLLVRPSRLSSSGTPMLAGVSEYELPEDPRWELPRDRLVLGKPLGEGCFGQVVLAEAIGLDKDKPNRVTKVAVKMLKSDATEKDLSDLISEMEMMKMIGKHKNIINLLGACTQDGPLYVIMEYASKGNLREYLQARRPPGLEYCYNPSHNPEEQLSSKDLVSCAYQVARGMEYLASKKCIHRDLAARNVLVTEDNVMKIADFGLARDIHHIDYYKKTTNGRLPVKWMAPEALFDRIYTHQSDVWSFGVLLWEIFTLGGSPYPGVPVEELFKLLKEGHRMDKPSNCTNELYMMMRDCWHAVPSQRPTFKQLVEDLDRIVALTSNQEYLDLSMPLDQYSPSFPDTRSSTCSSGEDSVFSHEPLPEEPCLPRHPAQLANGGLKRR", "experiment": "mobility shift assay"}, "LOK": {"biological_target": "T18, LOK (Homo sapiens, UniProt O94804)", "T18 construct": "purchased Carna Biosciences", "experiment": "mobility shift assay"}, "DYRK3": {"biological_target": "T19, DYRK3 (Homo sapiens, UniProt O43781)", "T19 construct": "purchased Carna Biosciences", "experiment": "mobility shift assay"}, "PAK4": {"biological_target": "T20, PAK4 (Homo sapiens, UniProt O96013)", "T20 construct": "purchased Carna Biosciences", "experiment": "mobility shift assay"}, "DLK_Cascade": {"biological_target": "T21, DLK_Cascade (Homo sapiens, UniProt Q12852)", "T21 construct": "purchased Carna Biosciences", "experiment": "mobility shift assay"}, "TSSK1": {"biological_target": "T22, TSSK1 (Homo sapiens, UniProt Q9BXA7)", "T22 construct": "purchased Carna Biosciences", "experiment": "mobility shift assay"}, "FLT3": {"biological_target": "T23, FLT3 (Homo sapiens, UniProt P36888)", "T23 construct": "purchased Carna Biosciences", "experiment": "mobility shift assay"}, "PAK5": {"biological_target": "T24, PAK5 (Homo sapiens, UniProt Q9P286)", "T24 construct": "purchased Carna Biosciences", "experiment": "mobility shift assay"}, "ALK(L1152lnsT)": {"system": "ALK(L1152lnsT)", "experiment": "mobility shift assay", "settings": "10 μM"}, "EGFR(T790/L858R)": {"biological_target": "T25, EGFR(T790/L858R) (Homo sapiens, UniProt P00533, L858R/T790M)", "T25 construct": "purchased Carna Biosciences", "T25 sequence (P00533 669-1210 T790M/L858R limits assumed)": "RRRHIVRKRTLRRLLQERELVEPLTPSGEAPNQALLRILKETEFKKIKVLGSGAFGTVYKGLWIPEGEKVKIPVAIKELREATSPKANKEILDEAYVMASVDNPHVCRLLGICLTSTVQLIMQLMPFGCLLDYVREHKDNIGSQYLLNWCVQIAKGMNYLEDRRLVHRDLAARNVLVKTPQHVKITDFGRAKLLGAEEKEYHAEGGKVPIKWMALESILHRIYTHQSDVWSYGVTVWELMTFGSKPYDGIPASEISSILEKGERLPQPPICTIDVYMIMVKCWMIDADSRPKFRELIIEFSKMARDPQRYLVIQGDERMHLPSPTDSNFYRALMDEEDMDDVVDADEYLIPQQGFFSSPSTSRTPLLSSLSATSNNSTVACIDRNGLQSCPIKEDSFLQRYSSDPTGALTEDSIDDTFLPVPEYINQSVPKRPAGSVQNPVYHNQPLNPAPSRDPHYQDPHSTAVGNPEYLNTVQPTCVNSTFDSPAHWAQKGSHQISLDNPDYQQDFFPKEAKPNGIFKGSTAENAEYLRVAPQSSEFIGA", "experiment": "mobility shift assay"}, "NuaK1": {"biological_target": "T26, NuaK1 (Homo sapiens, UniProt O60285)", "T26 construct": "purchased Carna Biosciences", "experiment": "mobility shift assay"}, "IRAK1": {"biological_target": "T27, IRAK1 (Homo sapiens, UniProt P51617)", "T27 construct": "purchased Carna Biosciences", "experiment": "IMAP Assay"}, "CK1ε": {"biological_target": "T28, CK1ε (Homo sapiens, UniProt P49674)", "T28 construct": "purchased Carna Biosciences", "experiment": "mobility shift assay"}, "MAP3K1_Cascade": {"biological_target": "T29, MAP3K1_Cascade (Homo sapiens, UniProt Q13233)", "T29 construct": "purchased Carna Biosciences", "T29 sequence (Q13233 whole entry)": "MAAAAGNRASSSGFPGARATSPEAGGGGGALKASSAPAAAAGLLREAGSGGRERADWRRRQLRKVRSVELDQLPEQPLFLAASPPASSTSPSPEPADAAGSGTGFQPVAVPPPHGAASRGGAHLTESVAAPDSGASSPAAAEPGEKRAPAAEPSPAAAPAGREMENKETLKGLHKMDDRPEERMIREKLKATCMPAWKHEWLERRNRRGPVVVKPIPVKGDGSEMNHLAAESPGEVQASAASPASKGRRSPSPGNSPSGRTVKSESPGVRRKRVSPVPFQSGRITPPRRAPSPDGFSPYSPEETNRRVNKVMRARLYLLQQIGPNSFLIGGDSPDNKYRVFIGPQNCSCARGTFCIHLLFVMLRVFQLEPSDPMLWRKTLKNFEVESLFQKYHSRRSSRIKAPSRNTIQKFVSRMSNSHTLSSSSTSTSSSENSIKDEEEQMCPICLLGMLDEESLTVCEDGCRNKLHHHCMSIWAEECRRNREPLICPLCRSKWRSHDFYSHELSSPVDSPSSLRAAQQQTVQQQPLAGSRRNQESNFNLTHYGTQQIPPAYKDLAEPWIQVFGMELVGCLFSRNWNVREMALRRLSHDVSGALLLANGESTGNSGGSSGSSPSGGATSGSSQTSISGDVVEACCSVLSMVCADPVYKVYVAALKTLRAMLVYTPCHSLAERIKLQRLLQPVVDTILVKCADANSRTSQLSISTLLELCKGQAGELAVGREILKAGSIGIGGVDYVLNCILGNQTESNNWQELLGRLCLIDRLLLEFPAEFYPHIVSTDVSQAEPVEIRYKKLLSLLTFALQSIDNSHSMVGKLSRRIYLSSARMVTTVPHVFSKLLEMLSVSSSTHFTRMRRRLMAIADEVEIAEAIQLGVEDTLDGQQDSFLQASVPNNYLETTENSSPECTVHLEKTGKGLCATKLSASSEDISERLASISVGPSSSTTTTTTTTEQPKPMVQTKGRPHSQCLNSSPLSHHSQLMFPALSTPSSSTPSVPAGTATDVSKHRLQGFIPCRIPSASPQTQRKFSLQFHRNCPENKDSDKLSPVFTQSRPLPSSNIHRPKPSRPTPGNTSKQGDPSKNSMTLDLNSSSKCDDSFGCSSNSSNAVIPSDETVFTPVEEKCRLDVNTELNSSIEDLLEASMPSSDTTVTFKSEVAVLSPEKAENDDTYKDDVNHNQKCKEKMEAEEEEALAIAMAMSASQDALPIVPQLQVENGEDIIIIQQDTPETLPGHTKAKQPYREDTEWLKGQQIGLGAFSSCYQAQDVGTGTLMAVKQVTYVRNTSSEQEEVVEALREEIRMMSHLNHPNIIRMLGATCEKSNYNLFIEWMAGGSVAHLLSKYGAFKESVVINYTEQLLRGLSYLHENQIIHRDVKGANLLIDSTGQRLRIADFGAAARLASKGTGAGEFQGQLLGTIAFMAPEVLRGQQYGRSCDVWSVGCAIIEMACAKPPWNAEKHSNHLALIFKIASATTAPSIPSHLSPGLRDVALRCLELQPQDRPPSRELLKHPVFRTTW", "experiment": "mobility shift assay"}, "PGK": {"biological_target": "T30, PGK (Homo sapiens, UniProt Q13976)", "T30 construct": "purchased Carna Biosciences", "experiment": "mobility shift assay"}, "DDR2": {"biological_target": "T31, DDR2 (Homo sapiens, UniProt Q16832)", "T31 construct": "purchased Carna Biosciences", "T31 sequence (Q16832 22-855)": "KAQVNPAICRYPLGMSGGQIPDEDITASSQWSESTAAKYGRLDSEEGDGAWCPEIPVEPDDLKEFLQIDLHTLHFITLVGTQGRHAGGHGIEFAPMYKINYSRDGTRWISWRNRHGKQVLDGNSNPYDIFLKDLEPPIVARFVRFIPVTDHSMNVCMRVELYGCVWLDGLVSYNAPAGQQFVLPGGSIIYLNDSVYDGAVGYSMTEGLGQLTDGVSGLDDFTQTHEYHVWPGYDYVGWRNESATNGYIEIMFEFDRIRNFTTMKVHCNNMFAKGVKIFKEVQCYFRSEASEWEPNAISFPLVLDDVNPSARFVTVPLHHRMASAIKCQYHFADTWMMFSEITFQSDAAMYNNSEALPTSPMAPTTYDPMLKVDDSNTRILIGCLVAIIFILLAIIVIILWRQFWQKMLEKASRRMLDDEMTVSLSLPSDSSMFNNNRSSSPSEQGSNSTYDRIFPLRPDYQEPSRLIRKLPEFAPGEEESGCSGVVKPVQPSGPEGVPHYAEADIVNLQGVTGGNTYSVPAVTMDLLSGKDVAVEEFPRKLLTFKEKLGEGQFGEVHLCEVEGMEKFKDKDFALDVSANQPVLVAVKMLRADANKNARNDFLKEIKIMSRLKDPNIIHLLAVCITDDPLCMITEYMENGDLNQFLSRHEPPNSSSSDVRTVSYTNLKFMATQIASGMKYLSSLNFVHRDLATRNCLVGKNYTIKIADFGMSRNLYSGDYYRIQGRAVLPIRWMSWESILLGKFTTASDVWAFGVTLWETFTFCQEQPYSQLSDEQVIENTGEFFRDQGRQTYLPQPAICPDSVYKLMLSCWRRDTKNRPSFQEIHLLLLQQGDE", "experiment": "mobility shift assay"}, "TYRO3": {"biological_target": "T32, TYRO3 (Homo sapiens, UniProt Q06418)", "T32 construct": "purchased Carna Biosciences", "experiment": "mobility shift assay"}, "TRK1": {"system": "TRK1", "experiment": "mobility shift assay", "settings": "10 μM"}, "FGFR1": {"biological_target": "T33, FGFR1 (Homo sapiens, UniProt P11362)", "T33 construct": "purchased Carna Biosciences", "T33 sequence (P11362 22-822)": "as the sequence (P11362 22-822 V561M) above, with M540V counted along it", "experiment": "mobility shift assay"}, "MAP3K3_Cascade": {"system": "MAP3K3_Cascade", "experiment": "mobility shift assay", "settings": "10 μM"}, "SIK": {"biological_target": "T34, SIK (Homo sapiens, UniProt P57059)", "T34 construct": "purchased Carna Biosciences", "experiment": "mobility shift assay"}}}
{"molecule": "C[C@@H]1CC[C@H]2C(C)(C)CCC[C@]2(C)c2c1oc1c(C=O)c(O)c(O)cc21", "note": "[LG-1, liphagal]", "values": [{"measurement": "inhibition at 10 µM", "setting": "MARK2", "value": 2.7, "unit": "%"}, {"measurement": "inhibition at 10 µM", "setting": "CK2α1/β", "value": -0.9, "unit": "%"}, {"measurement": "IC50", "setting": "PIM2", "value": 5.31, "unit": "µM"}, {"measurement": "IC50", "setting": "CDK7/CycHMAT1", "value": 1.27, "unit": "µM"}, {"measurement": "inhibition at 10 µM", "setting": "MLK3_Cascade", "value": 19.5, "unit": "%"}, {"measurement": "inhibition at 10 µM", "setting": "QIK", "value": 2.7, "unit": "%"}, {"measurement": "inhibition at 10 µM", "setting": "YES", "value": 0.7, "unit": "%"}, {"measurement": "inhibition at 10 µM", "setting": "CRIK", "value": -0.8, "unit": "%"}, {"measurement": "inhibition at 10 µM", "setting": "MAP3K2_Cascade", "value": 16.8, "unit": "%"}, {"measurement": "% Inhibition", "setting": "MAPXK2 Cascade", "value": 2.7, "unit": "%"}, {"measurement": "inhibition at 10 µM", "setting": "JAK1", "value": 14.9, "unit": "%"}, {"measurement": "inhibition at 10 µM", "setting": "DYRK1B", "value": 21.8, "unit": "%"}, {"measurement": "inhibition at 10 µM", "setting": "SRC", "value": -7.1, "unit": "%"}, {"measurement": "inhibition at 10 µM", "setting": "HER2", "value": -1.6, "unit": "%"}, {"measurement": "inhibition at 10 µM", "setting": "EGFR(T790M)", "value": -2, "unit": "%"}, {"measurement": "inhibition at 10 µM", "setting": "ALK(C1156Y)", "value": 0.2, "unit": "%"}, {"measurement": "inhibition at 10 µM", "setting": "TSSK3", "value": 85.6, "unit": "%"}, {"measurement": "inhibition at 10 µM", "setting": "SRPK1", "value": 28.2, "unit": "%"}, {"measurement": "inhibition at 10 µM", "setting": "WNK2", "value": 20.7, "unit": "%"}, {"measurement": "inhibition at 10 µM", "setting": "FGFR1(V561M)", "value": -12.6, "unit": "%"}, {"measurement": "inhibition at 10 µM", "setting": "LOK", "value": 15.8, "unit": "%"}, {"measurement": "inhibition at 10 µM", "setting": "DYRK3", "value": 39.2, "unit": "%"}, {"measurement": "inhibition at 10 µM", "setting": "PAK4", "value": -24.7, "unit": "%"}, {"measurement": "inhibition at 10 µM", "setting": "DLK_Cascade", "value": 13.9, "unit": "%"}, {"measurement": "inhibition at 10 µM", "setting": "TSSK1", "value": 4.1, "unit": "%"}, {"measurement": "inhibition at 10 µM", "setting": "FLT3", "value": 2.1, "unit": "%"}, {"measurement": "inhibition at 10 µM", "setting": "PAK5", "value": -2.5, "unit": "%"}, {"measurement": "% Inhibition", "setting": "ALK(L1152lnsT)", "value": "−0.2", "unit": "%"}, {"measurement": "inhibition at 10 µM", "setting": "EGFR(T790/L858R)", "value": -2.2, "unit": "%"}, {"measurement": "inhibition at 10 µM", "setting": "NuaK1", "value": 6, "unit": "%"}, {"measurement": "inhibition at 10 µM", "setting": "IRAK1", "value": 1.2, "unit": "%"}, {"measurement": "inhibition at 10 µM", "setting": "CK1ε", "value": 37.7, "unit": "%"}, {"measurement": "inhibition at 10 µM", "setting": "MAP3K1_Cascade", "value": 26.4, "unit": "%"}, {"measurement": "inhibition at 10 µM", "setting": "PGK", "value": 6.1, "unit": "%"}, {"measurement": "inhibition at 10 µM", "setting": "DDR2", "value": 42.5, "unit": "%"}, {"measurement": "inhibition at 10 µM", "setting": "TYRO3", "value": -6.6, "unit": "%"}, {"measurement": "% Inhibition", "setting": "TRK1", "value": "−0.5", "unit": "%"}, {"measurement": "inhibition at 10 µM", "setting": "FGFR1", "value": -2.3, "unit": "%"}, {"measurement": "% Inhibition", "setting": "MAP3K3_Cascade", "value": 48.8, "unit": "%"}, {"measurement": "inhibition at 10 µM", "setting": "SIK", "value": 33.7, "unit": "%"}]}
